Source: patent publication US7728158B2, “PPAR activity regulators” (Ajinomoto Co., Inc., priority 2006, dated 2010)

Experiments:
PPAR-α = molecular target: T1, PPAR-α (Homo sapiens, UniProt Q07869); assay: PPAR-α reporter assay (GAL4 luciferase, CV-1 cells); format: cell-based; settings: induction ratio of luciferase activity at 50 μM, activity without tested compound = 1, hGR-GAL4-hPPAR-α
T1 construct: expressed in transfected cells; host or cells: CV-1 (African green monkey kidney)
T1 sequence (Q07869 167-468): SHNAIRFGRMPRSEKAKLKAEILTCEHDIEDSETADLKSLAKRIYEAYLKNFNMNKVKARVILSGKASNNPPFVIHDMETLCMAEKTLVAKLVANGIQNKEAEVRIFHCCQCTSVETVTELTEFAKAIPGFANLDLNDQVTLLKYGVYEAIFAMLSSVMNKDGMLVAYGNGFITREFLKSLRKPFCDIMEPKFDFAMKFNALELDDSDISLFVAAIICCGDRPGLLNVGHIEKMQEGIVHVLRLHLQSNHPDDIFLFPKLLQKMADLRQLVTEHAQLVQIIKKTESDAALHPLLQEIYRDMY
Description: The reporter assay of PPAR (peroxisome proliferator-activated receptor)-α was conducted by using the following plasmids in accordance with the known report (Steven A. Kliwer et al., The Journal of Biological Chemistry Vol. 270, No. 22: 12953-12956, 1995).
As luciferase expressing plasmid, used was the plasmid which introduces the sequence wherein 5 yeast GAL4 binding sequences, UAS (upstream activating sequence), are tandemly connected to the upstream of the thymidine kinase promoter of pTAL-Luc (#6252-1, produced by Clontech) (UAS×5-TK-Luc) (1).
(§1) As PPAR-α receptor expressing plasmid, used was the plasmid which introduces the N-terminal domain of human GR (1-76aa), the yeast GAL4 DNA binding domain (1-147aa) and PPAR-α ligand binding domain (167-468aa) to NotI site and SalI site of pExchange-1 core vector (#211176, produced by Stratagene) (hGR-GAL4-hPPAR-α) (2). The plasmid mixed solution used in the reporter assay of PPAR-α contains above (1), (2) and plasmid pcDNA3.1(−) as a carrier in the weight ratio of 4:1:3.
The medium having the following composition was used for seeding cell line CV-1 used in the reporter assay, derived from the kidney of an African green monkey, on the plate; and for diluting the tested compounds. Used was Dulbecco modified Eagle medium (D2902 without phenol red, produced by SIGMA) to which 3.7 g/L of NaHCO3, 3.5 g/L of D-glucose and 10% v/v fetal bovine serum were added.
(§2) CV-1 cells were seeded on the 384-well white plate (781080, produced by Greiner) to become 1.5×10^4 cells/30 μL per one well. Then, gene transfer was conducted in accordance with the manual by using OPTI-MEM I (11058-021, produced by GIBCO), FuGENE6 (1-815-075, produced by Roche) and the above PPAR-α plasmid mixed solution. The incubation was conducted in a carbon-dioxide incubator at 37° C. for 6 to 8 hours. Then, a diluted tested compound was added thereto and incubated in a carbon-dioxide incubator at 37° C. for 16 to 18 hours. Britelite (6016979, produced by PerkinElmer) was further added thereto and stirred, and the luciferase activity was measured with EnVision (produced by PerkinElmer).
(§3) Specifying the luciferase activity without addition of a tested compound as 1, the induction ratio of the luciferase activity by each tested compound was calculated.

PPAR-γ = molecular target: T2, PPAR-γ (Homo sapiens, UniProt P37231); assay: PPAR-γ reporter assay (GAL4 luciferase, CV-1 cells); format: cell-based; settings: induction ratio of luciferase activity at 25 μM, activity without tested compound = 1, hGR-GAL4-hPPAR-γ
T2 construct: expressed in transfected cells; host or cells: CV-1 (African green monkey kidney)
T2 sequence (P37231 204-505): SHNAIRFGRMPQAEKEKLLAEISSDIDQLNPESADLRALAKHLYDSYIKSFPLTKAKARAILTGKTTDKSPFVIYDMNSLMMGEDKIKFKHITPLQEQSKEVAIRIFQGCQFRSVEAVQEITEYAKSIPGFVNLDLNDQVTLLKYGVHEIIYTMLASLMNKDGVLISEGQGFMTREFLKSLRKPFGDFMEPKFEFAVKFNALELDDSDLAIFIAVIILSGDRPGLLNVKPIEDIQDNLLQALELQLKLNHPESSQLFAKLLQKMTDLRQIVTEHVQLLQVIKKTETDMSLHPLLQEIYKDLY
Description: The reporter assay of PPAR-γ was conducted by using the following plasmids in accordance with the known report (Steven A. Kliwer et al., The Journal of Biological Chemistry Vol. 270, No. 22: 12953-12956, 1995).
As luciferase expressing plasmid, used was the plasmid which introduces the sequence wherein 5 yeast GAL4 binding sequences, UAS, are tandemly connected to the upstream of the thymidine kinase promoter of pTAL-Luc (#6252-1, produced by Clontech) (UAS×5-TK-Luc) (1).
as §1, with “As PPAR-γ” for “As PPAR-α”, “and PPAR-γ2” for “and PPAR-α”, “domain (204-505aa)” for “domain (167-468aa)”, “Stratagene) (hGR-GAL4-hPPAR-γ)” for “Stratagene) (hGR-GAL4-hPPAR-α)”, “of PPAR-γ” for “of PPAR-α”
as §2, with “PPAR-γ” for “PPAR-α”
as §3

| PPAR-α induction ratio (PPAR-α) | PPAR-γ induction ratio (PPAR-γ) | SMILES |
| --- | --- | --- |
| 14.4 | 6.6 | CCCCCCCCCCCC(=O)N[C@@H](Cc1ccc(Cl)cc1)C(=O)O [Example 42] |
| 3.0 | 2.2 | CCCCCCCCCCCC(=O)N[C@@H](Cc1csc2ccccc12)C(=O)O [Example 43] |
| 6.2 | 6.7 | CCCCCCCCCCCC(=O)NC1(C(=O)O)CCCCCC1 [Example 44] |
